Counter-ions that a name gives are not always drawn.
Key:
[1] = Small scale dissolution test in FaSSIF (Test example 2); conditions: 37° C., paddle 50 rpm

Row | SMILES | Dissolved concentration after 10 min [µg/mL] | Dissolved concentration after 240 min [µg/mL] | solubility of the Compound F6-20 hydrochloride salt crystal ([1]; 5 to 240 min, results in figures, stated in words) | initial solubility of the Compound F6-20 hydrochloride salt crystal ([1]; early phase, stated in words (FIG. 26)) | solubility of the Compound F6-20 mesylate salt crystal ([1]; 5 to 240 min, versus Comparative example 3, stated in words)
1 | CCc1cc2c(cc1N1CCC(N3CCOCC3)CC1)C(C)(C)c1[nH]c3cc(C#N)ccc3c1C2=O [9-ethyl-6,6-dimethyl-8-(4-morpholin-4-yl-piperidin-1-yl)-11-oxo-6,11-dihydro-5H-benzo[b]carbazole-3-carbonitrile monohydrochloride salt] |  |  | improved by addition of SLS and poly(sodium 4-styrene sulfonate) | improved by addition of polyoxyethylene (105) polyoxypropylene (5) glycol | 
2 | CC1(C)c2cc(C3CCN(C4COC4)CC3)ccc2C(=O)c2c1[nH]c1cc(C#N)ccc21 [Comparative example 4, 6,6-Dimethyl-8-(1-oxetan-3-yl-piperidin-4-yl)-11-oxo-6,11-dihydro-5H-benzo[b]carbazole-3-carbonitrile] | 8.3 ± 1.5 | 3.8 ± 2.6 |  |  | 
3 | CCc1cc2c(cc1N1CCC(N3CCOCC3)CC1)C(C)(C)c1[nH]c3cc(C#N)ccc3c1C2=O [Compound F6-20 mesylate salt, 9-Ethyl-6,6-dimethyl-8-(4-morpholin-4-yl-piperidin-1-yl)-11-oxo-6,11-dihydro-5H-benzo[b]carbazole-3-carbonitrile] |  |  |  |  | improved in accordance with the additive amount of sodium lauryl sulfate

Further lines, with some results ahead:

Row | Dissolved concentration after 10 min [µg/mL] | Dissolved concentration after 240 min [µg/mL] | SMILES | solubility of the Compound F6-20 hydrochloride salt crystal ([1]; 5 to 240 min, results in figures, stated in words) | initial solubility of the Compound F6-20 hydrochloride salt crystal ([1]; early phase, stated in words (FIG. 26)) | solubility of the Compound F6-20 mesylate salt crystal ([1]; 5 to 240 min, versus Comparative example 3, stated in words)
4 | 4.4 ± 0.4 | 4.8 ± 0.3 | CC1(C)c2cc(N3CCN(C4COC4)CC3)c(Br)cc2C(=O)c2c1[nH]c1cc(C#N)ccc21 [Comparative example 5, 9-Bromo-6,6-dimethyl-8-(4-oxetan-3-yl-piperazin-1-yl)-11-oxo-6,11-dihydro-5H-benzo[b]carbazole-3-carbonitrile] |  |  | 
5 | 18.2 ± 0.1 | 3.7 ± 0.5 | CC1(C)c2cc(N3CCN(C4CC4)CC3)c(Br)cc2C(=O)c2c1[nH]c1cc(C#N)ccc21 [Comparative example 6, 9-Bromo-8-(4-cyclopropyl-piperazin-1-yl)-6,6-dimethyl-11-oxo-6,11-dihydro-5H-benzo[b]carbazole-3-carbonitrile] |  |  | 
6 | 0.4 ± 0.2 | 0.4 ± 0.4 | CCc1cc2c(cc1N1CCN(C3COC3)CC1)C(C)(C)c1[nH]c3cc(C#N)ccc3c1C2=O [Comparative example 7, 9-Ethyl-6,6-dimethyl-8-(4-oxetan-3-yl-piperazin-1-yl)-11-oxo-6,11-dihydro-5H-benzo[b]carbazole-3-carbonitrile] |  |  | 
